Source: patent publication US8785452B2, “Anti-infective compounds” (priority 2008, dated 2014)

Tested on: M. tuberculosis clinical isolates
Type: cell-based, Mycobacterium tuberculosis
Conditions: multi-drug-resistant and extensive-drug-resistant isolates

Cc1cccn2c(=O)c(C=O)c(Nc3cccc(Cl)c3)nc12 [compound 133, 2-(3-Chlorophenylamino)-9-methyl-4-oxo-4H-pyrido[1,2-a]pyrimidine-3-carbaldehyde]
activity (MIC values) against MDR and XDR clinical isolates, in words: within the micromolar range
